Data as given in ChEMBL document CHEMBL5214923, “Contemporary mTOR inhibitor scaffolds to diseases breakdown: A patent review (2015-2021)” (Eur J Med Chem, 2022).
Values belong to the compound of their own block, whether it stands above or below them.

Legend:
[1] = molecular target: T1, Phosphatidylinositol 4,5-bisphosphate 3-kinase catalytic subunit delta isoform (Homo sapiens, UniProt O00329); assay: Inhibition of human PI3Kdelta preincubated for 15 mins followed by ATP addition measured after 1 hr by TR-FRET assay
T1 sequence (O00329 whole entry): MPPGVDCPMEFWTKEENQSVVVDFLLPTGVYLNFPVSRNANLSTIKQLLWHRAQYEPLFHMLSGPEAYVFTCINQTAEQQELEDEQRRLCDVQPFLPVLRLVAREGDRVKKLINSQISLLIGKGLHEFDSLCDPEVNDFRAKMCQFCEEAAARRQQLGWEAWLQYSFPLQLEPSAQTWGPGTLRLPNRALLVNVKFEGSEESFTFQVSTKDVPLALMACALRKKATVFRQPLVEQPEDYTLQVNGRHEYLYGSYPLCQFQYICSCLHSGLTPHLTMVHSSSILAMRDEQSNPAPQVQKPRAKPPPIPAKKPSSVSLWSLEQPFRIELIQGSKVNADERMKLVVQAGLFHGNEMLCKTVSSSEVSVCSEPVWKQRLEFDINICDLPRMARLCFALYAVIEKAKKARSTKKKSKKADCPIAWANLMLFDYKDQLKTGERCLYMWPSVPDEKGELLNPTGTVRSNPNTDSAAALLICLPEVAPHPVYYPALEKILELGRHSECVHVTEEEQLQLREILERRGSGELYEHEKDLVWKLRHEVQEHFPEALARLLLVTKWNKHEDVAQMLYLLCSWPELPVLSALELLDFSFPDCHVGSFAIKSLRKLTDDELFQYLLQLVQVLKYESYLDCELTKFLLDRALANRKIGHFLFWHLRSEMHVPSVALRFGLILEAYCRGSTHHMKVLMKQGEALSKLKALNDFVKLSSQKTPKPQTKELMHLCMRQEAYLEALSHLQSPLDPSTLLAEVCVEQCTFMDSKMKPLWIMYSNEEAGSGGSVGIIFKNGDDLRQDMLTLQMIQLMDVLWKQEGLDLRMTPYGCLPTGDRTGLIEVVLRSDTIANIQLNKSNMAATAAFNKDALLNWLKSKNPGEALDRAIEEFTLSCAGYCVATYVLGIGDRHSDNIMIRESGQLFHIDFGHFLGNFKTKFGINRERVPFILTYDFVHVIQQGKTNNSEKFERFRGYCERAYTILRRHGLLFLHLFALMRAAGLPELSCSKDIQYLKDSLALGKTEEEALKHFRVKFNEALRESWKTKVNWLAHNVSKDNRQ

[2] = molecular target: Phosphatidylinositol 4,5-bisphosphate 3-kinase catalytic subunit alpha isoform (Homo sapiens, UniProt P42336); assay: Inhibition of human PI3Kalpha preincubated for 15 mins followed by ATP addition measured after 1 hr by TR-FRET assay
[3] = molecular target: T2, Phosphatidylinositol 4,5-bisphosphate 3-kinase catalytic subunit gamma isoform (Homo sapiens, UniProt P48736); assay: Inhibition of human PI3Kgamma preincubated for 15 mins followed by ATP addition measured after 1 hr by TR-FRET assay
mTORC1 [4] = molecular target: T3, mTORC1 (Homo sapiens, UniProt P42345+Q8N122+Q9BVC4); assay: Inhibition of mTORC1 (unknown origin); assay type: protein-complex assay
mTORC1 [5] = molecular target: T3, mTORC1; assay: Inhibition of mTORC1 in human PC-3 cells assessed as measuring phosphorylated S6K level incubated for 24 hrs by AlphaLISA assay; assay type: cell-based
mTORC2 [6] = molecular target: T4, mTORC2 (Homo sapiens, UniProt P42345+Q6R327+Q9BPZ7+Q9BVC4); assay: Inhibition of mTORC2 in human PC-3 cells assessed as measuring phosphorylated Akt level incubated for 24 hrs by AlphaLISA assay; assay type: cell-based
[7] = molecular target: T5, Serine/threonine-protein kinase mTOR (Homo sapiens, UniProt P42345); assay: Inhibition of human mTOR assessed as measuring phosphorylated p70S6K level by TR-FRET assay
[8] = molecular target: T5, Serine/threonine-protein kinase mTOR; assay: Inhibition of mTOR (unknown origin)
mTORC2 [9] = molecular target: T4, mTORC2; assay: Inhibition of mTORC2 (unknown origin); assay type: protein-complex assay
[10] = molecular target: Phosphatidylinositol 4,5-bisphosphate 3-kinase catalytic subunit beta isoform (Homo sapiens, UniProt P42338); assay: Inhibition of PI3Kbeta (unknown origin) by TR-FRET assay
[11] = molecular target: T2, Phosphatidylinositol 4,5-bisphosphate 3-kinase catalytic subunit gamma isoform; assay: Inhibition of PI3Kgamma (unknown origin) by TR-FRET assay
mTORC1 [12] = molecular target: T3, mTORC1; assay: Inhibition of mTORC1 (unknown origin) assessed as measuring phosphorylated p7OS6K level at 0.2 uM relative to control; assay type: protein-complex assay
mTORC2 (Homo sapiens) = mTORC2 (Homo sapiens) (UniProt P42345+Q6R327+Q9BVC4+Q9BPZ7); assay: Inhibition of mTORC2 (unknown origin) assessed as measuring phosphorylated AKT at 0.5 uM relative to control; assay type: protein-complex assay
mTORC1 [13] = molecular target: T3, mTORC1; assay: Inhibition of mTORC1 (unknown origin) assessed as measuring phosphorylated 4EBP1 level at 1 uM relative to control; assay type: protein-complex assay
A549 = assay: Antitumor activity against human A549 cells assessed as cell growth inhibition incubated for 72 hrs by Cell Titer-Glo assay; assay type: functional, cell-based; details: A549, 72 h
[14] = Solubility of the compound in water; assay type: physicochemical
PC-3 = assay: Antitumor activity against human PC-3 cells assessed as cell growth inhibition; assay type: functional, cell-based
mTORC1 [15] = molecular target: T3, mTORC1; assay: Inhibition of mTORC1 in human Jurkat cells assessed as inhibition of S6K phosphorylation incubated for 4 hrs by Western blot analysis; assay type: cell-based
[16] = Antitumor activity against human U-87 MG cells assessed as cell growth inhibition; assay type: functional, cell-based, U-87MG ATCC
[17] = molecular target: Peptidyl-prolyl cis-trans isomerase FKBP1A (Homo sapiens, UniProt P62942); assay: Binding affinity to FKBP12 (unknown origin) assessed as inhibition constant
DU-145 = assay: Antitumor activity against human DU-145 cells assessed as cell growth inhibition; assay type: functional, cell-based
SF-268 = assay: Antitumor activity against human SF-268 cells assessed as cell growth inhibition; assay type: functional, cell-based
[18] = molecular target: T5, Serine/threonine-protein kinase mTOR; assay: Inhibition of mTOR (unknown origin) assessed as residual activity at 30 nM relative to control; values are per cent of control

T2 sequence (P48736 whole entry, canonical isoform): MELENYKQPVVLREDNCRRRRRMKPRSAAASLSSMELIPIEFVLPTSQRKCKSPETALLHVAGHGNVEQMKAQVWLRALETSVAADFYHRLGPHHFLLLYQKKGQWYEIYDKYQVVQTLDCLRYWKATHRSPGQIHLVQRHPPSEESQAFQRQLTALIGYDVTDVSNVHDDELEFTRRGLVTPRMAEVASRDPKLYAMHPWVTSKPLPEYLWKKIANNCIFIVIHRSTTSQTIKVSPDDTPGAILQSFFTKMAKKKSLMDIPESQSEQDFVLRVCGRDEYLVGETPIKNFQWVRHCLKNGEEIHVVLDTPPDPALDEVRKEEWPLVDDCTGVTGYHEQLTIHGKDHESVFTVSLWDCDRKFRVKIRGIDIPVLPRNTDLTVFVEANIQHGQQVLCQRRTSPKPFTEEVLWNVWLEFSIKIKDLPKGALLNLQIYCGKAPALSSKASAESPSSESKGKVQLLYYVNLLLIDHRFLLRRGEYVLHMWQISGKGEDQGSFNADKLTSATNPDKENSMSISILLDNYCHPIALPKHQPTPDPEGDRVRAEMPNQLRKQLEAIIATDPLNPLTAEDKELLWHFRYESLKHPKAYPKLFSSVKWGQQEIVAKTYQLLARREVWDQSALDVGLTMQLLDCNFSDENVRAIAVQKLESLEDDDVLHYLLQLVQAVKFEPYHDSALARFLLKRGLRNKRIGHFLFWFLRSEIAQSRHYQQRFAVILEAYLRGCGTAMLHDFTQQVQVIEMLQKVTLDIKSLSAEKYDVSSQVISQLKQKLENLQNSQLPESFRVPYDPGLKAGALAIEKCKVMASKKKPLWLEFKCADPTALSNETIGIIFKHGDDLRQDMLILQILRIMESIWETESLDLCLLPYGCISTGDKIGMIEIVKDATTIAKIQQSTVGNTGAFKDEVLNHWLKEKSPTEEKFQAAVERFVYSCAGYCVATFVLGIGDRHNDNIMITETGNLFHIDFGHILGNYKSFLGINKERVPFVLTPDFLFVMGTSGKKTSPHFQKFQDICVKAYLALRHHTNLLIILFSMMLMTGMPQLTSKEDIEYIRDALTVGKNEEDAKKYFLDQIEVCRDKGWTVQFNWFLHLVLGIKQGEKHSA
Sequence of Peptidyl-prolyl cis-trans isomerase FKBP1A (P62942 whole entry): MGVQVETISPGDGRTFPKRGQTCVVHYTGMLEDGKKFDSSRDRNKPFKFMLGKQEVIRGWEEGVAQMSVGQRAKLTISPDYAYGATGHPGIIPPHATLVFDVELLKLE
Sequence of Phosphatidylinositol 4,5-bisphosphate 3-kinase catalytic subunit alpha isoform (P42336 whole entry, canonical isoform): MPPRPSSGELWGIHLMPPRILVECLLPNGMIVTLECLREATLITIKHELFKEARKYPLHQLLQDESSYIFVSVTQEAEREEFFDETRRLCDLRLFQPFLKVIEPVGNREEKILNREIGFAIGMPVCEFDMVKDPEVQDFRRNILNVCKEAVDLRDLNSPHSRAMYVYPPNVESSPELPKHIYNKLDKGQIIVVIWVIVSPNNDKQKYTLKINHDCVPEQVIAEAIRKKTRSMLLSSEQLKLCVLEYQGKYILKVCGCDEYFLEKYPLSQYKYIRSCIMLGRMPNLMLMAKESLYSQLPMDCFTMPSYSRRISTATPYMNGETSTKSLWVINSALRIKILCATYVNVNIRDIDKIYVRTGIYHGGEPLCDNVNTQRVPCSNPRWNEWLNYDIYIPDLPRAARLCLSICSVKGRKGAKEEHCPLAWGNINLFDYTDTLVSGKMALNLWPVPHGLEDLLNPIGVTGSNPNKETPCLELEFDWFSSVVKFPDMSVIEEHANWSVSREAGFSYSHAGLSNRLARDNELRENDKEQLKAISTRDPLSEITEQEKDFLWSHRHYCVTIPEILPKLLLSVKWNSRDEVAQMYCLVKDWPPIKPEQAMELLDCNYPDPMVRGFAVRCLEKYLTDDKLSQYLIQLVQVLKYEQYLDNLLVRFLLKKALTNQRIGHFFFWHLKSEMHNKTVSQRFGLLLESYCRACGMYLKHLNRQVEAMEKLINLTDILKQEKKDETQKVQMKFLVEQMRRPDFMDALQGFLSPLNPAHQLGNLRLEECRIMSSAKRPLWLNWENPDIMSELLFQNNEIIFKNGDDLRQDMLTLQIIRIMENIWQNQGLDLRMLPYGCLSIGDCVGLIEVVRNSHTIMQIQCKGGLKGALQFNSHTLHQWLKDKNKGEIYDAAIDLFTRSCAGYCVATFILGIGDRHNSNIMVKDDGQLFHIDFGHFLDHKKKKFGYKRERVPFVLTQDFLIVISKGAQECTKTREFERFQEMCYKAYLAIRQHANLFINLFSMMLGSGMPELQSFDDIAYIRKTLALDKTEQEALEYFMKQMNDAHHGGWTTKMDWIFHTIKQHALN
Sequence of Phosphatidylinositol 4,5-bisphosphate 3-kinase catalytic subunit beta isoform (P42338 whole entry, canonical isoform): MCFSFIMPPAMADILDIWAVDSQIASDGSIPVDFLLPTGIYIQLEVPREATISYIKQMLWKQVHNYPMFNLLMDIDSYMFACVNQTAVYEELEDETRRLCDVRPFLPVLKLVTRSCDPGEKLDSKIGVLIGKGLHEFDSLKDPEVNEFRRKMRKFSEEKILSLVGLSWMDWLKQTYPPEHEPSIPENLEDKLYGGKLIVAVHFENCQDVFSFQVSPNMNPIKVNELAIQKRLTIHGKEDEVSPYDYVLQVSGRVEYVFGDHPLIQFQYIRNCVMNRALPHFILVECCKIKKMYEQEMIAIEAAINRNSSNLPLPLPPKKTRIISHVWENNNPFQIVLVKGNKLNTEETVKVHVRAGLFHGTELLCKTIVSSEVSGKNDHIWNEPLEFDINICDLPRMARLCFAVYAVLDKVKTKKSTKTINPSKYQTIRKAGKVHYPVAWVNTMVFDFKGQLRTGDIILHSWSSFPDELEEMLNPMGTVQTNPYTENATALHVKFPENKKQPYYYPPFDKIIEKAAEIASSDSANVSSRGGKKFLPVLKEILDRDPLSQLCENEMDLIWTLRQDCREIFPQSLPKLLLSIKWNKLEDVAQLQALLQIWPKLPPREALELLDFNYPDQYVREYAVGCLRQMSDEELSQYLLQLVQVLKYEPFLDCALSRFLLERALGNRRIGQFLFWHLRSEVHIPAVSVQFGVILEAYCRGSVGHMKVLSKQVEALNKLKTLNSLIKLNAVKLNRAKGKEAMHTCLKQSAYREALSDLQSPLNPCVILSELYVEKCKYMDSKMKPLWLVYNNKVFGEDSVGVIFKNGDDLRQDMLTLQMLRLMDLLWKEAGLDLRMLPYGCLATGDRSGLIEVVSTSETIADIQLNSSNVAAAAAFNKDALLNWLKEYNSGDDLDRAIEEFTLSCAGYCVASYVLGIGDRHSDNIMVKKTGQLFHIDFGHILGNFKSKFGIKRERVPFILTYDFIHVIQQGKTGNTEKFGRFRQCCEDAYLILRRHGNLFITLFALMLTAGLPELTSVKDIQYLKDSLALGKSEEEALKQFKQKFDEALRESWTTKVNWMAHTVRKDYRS

SMILES: Nc1ncnc2c1c(-c1cc3cc(O)cc(Cl)c3[nH]1)nn2C1CCOCC1
IC50 [1]: 10 nM
IC50 [2]: 100 nM
IC50 [3]: 25 nM
IC50 (mTORC1 [4]): < 5 nM

SMILES: CO[C@@H]1C[C@H](C[C@@H](C)[C@@H]2CC(=O)[C@H](C)/C=C(\C)[C@@H](O)[C@@H](OC)C(=O)[C@H](C)C[C@H](C)/C=C/C=C/C=C(\C)C(OCCO)C[C@@H]3CC[C@@H](C)[C@@](O)(O3)C(=O)C(=O)N3CCCC[C@H]3C(=O)O2)CC[C@H]1OC(=O)NCCc1ccccc1 (stereo partly specified)
IC50 (mTORC1 [5]): < 0.316 nM
IC50 (mTORC2 [6]): > 10000 nM

SMILES: CO[C@@H]1C[C@H](C[C@@H](C)[C@@H]2CC(=O)[C@H](C)/C=C(\C)[C@@H](O)[C@@H](OC)C(=O)[C@H](C)C[C@H](C)/C=C/C=C/C=C(\C)C(OCCO)C[C@@H]3CC[C@@H](C)[C@@](O)(O3)C(=O)C(=O)N3CCCC[C@H]3C(=O)O2)CC[C@H]1OCCCN1CCOC[C@@H]1C (stereo partly specified)
IC50 (mTORC1 [5]): < 0.316 nM
IC50 (mTORC2 [6]): > 10000 nM

SMILES: O=c1[nH]c2ncc(-c3ccc(-c4nc[nH]n4)cc3)nc2n1CCC1CCOCC1
IC50 [8]: 18 nM
IC50 (mTORC2 [9]): 40 nM
IC50 (mTORC1 [4]): 2 nM

SMILES: CC(C)(O)c1ccc(-c2cnc3[nH]c(=O)n(CC4CCOCC4)c3n2)cn1
IC50 [8]: 2550 nM
IC50 (mTORC2 [9]): 2410 nM
IC50 (mTORC1 [4]): 176 nM

SMILES: C[C@H]1COCCN1c1cc2nc(-c3cccc(CO)c3)ccc2c(N2CCOC[C@@H]2C)n1
IC50 [7]: < 100 nM

SMILES: CO[C@H]1C[C@@H]2CC[C@@H](C)[C@@](O)(O2)C(=O)C(=O)N2CCCC[C@H]2C(=O)O[C@H]([C@H](C)C[C@@H]2CC[C@@H](O)[C@H](OC)C2)CC(=O)[C@H](C)/C=C(\C)[C@@H](O)[C@@H](OC)C(=O)[C@H](C)C[C@H](C)/C=C/C=C/C=C/1C [SIROLIMUS]
IC50 (PC-3): 1300 nM
IC50 [16]: 10000 nM
IC50 (DU-145): 4000 nM
IC50 (A549): 49400 nM
IC50 (SF-268): 2700 nM

SMILES: CN(C)CC(=O)Nc1ccc(-c2ccc3ncc4c(c3c2)n(-c2ccc(C(C)(C)C#N)cc2)c2nncn42)cn1
residual activity [18]: < 5%

SMILES: COc1ccc(-c2ccc3c(N4CCOC[C@@H]4C)cc(N4CCOC[C@@H]4C)nc3n2)cc1
IC50 [7]: < 100 nM

Further lines, with some results ahead:

IC50 [7]: < 100 nM
SMILES: COc1ccc(-c2ccc3c(N4CCOC[C@@H]4C)nc(N4CCOC[C@@H]4C)cc3n2)cc1

IC50 [10]: 4.77 nM
IC50 [11]: 5.14 nM
SMILES: O=S(=O)(Nc1cc(-c2ccc3ncc(N4CCNCC4)nc3c2)cnc1Cl)c1ccc(F)cc1

inhibition (mTORC1 [12]): 77.7%
inhibition (mTORC2 (Homo sapiens)): 56.2%
inhibition (mTORC1 [13]): 83.2%
SMILES: C[C@H]1COCCN1c1nc(N2CCO[C@@H]3CCCC[C@@H]32)nc2nc(-c3cccc(C4=NCC(C)(C)N4)c3)ccc12

IC50 (A549): 3040 nM
solubility [14]: 10000 µg/mL
SMILES: CO[C@@H]1C[C@@H]2CC[C@@H](C)[C@@](O)(O2)C(=O)C(=O)N2CCCC[C@H]2C(=O)O[C@H]([C@H](C)C[C@@H]2CC[C@@H](O)[C@H](OC)C2)CC(=O)[C@H](C)/C=C(\C)[C@@H](OC(=O)C[n+]2csc(C)c2C)[C@@H](OC)C(=O)[C@H](C)C[C@H](C)/C=C/C=C/C=C/1C.[Br-]

IC50 (PC-3): 2.5 nM
IC50 (mTORC1 [15]): 0.1 nM
Ki [17]: 3.9 nM
IC50 (DU-145): 2.7 nM
SMILES: CO[C@@H]1C[C@@H]2CC[C@@H](C)[C@@](O)(O2)C(=O)C(=O)N2CCCC[C@H]2C(=O)OC([C@H](C)C[C@@H]2C[C@@H]3C[C@H]2C[C@H]3O)CC(=O)[C@H](C)/C=C(\C)[C@@H](O)[C@@H](OC)C(=O)[C@H](C)C[C@H](C)/C=C/C=C/C=C/1C (stereo partly specified)
IC50 [16]: 2.2 nM
IC50 (SF-268): 0.19 nM
